In brackets after ≈: the same amount, converted by molar mass.
Experiments:
[1] = Test Example 1: drug solubility, simple mixture versus solid dispersion; format: physicochemical; settings: thermodynamic from solid, 20 ml, amount corresponding to 400 mg of Olaparib, 37°C, 100 rpm
Procedure: To 20 ml of distilled water and pH 1.2 buffer, each of the solid dispersions of Example 1 and 4 and the simple mixtures of Comparative Examples 2 and 3 corresponding to 400 mg of Olaparib was added, and stirred in an incubator at 37°C with 100 rpm for 1 hour. The test solution was filtered with RC syringe filter (0.2 µm) and 1 mL of the filtered solution was taken and diluted with 2 mL of the following diluent solution, and then the amount was measured according to Olaparib amount analysis method.
• 1) Diluent solution preparation Diluent solution - water (DW): acetonitrile (CAN)=1:1 • 2) Operation • Detector: UV absorption spectrometer 254 nm • Column: Nova-Pak C18 Column, 60Å, 4 µm, 3.9 mm × 150 mm • Flow rate: 1.2 ml/min • Injection amount: 5 µl • Column temperature: 35°C • Run time: 16 min • Mobile phase [Table 4]

[2] = cited from earlier work

solubility at 1 h ([1]; simulated gastric fluid, pH 1.2 buffer): 0.1 mg/mL (≈ 230 µM) | solubility at 1 h ([1]; water (distilled water)): 0.1 mg/mL (≈ 230 µM)
Structure (SMILES): O=C(c1cc(Cc2n[nH]c(=O)c3ccccc23)ccc1F)N1CCN(C(=O)C2CC2)CC1 [Olaparib]
water solubility [2]: 0.1 to 0.13 mg/mL | pKa ([2]; weak acidic): 12.07

— patent EP4079295A1, “COMPOSITION HAVING IMPROVED SOLUBILITY AND BIOAVAILABILITY OF OLAPARIB” (Samyang Holdings Corporation, priority 2019, dated 2021)
